Results taken from publication PMC5513444, “The synthesis and evaluation of triazolopyrimidines as anti-tubercular agents” (Bioorganic & Medicinal Chemistry, 2017).
In brackets after ≈: the same amount, converted by molar mass. Several values for one entry are separate records, joined by “and”; a condition that tells them apart may be missing. Identical values can stand only once.

What was measured:
M. tuberculosis H37Rv [1] = test: MIC90 against M. tuberculosis in liquid medium; format: cell-based, Mycobacterium tuberculosis; details: Mycobacterium tuberculosis, H37RV, 120 h; liquid medium 7H9-Tw-OADC, aerobic, 5 days; average ± SD of two independent experiments; read-out: MIC (MIC90, minimum concentration required to inhibit growth of M. tuberculosis by 90%)
HepG2 cells = test: Cytotoxicity against HepG2 cell line (CellTiter-Glo); format: cell-based; details: for Selectivity index (SI) = IC50/MIC90: HepG2 IC50 / M. tuberculosis MIC90; for IC50: Homo sapiens, 48 h, HepG2, 2 days incubation, read-out: IC50 (concentration required to reduce the viability of HepG2 cells by 50%)
[2] = Turnover by mouse liver microsomes; format: in vitro ADME
Description: (§1) Based on in silico ADME predictions, three compounds were chosen to cover a range of cLogP values and were evaluated for their in vitro microsomal stability (Table 7). Rapid metabolism of compound 44 was observed, in rodent and human liver microsomes. The para-OCF3 analog 48 was also rapidly metabolized. The amide (49) had improved in vitro microsomal stability, with only 12% loss after 30 min in mouse microsomes, 22% loss in rat microsomes and 31% loss in human microsomes. The difference in stability for these three compounds is probably due to presence of more than one oxidatively-labile carbon in 44 and 48 (both have a two carbon linker), while 49 has only one such soft spot, although these have not been confirmed with metabolite identification studies.

[3] = Turnover by rat liver microsomes; format: in vitro ADME
Description: as §1

[4] = Turnover by human liver microsomes; format: in vitro ADME
Description: as §1

[5] = Fraction unbound in mouse plasma; format: in vitro ADME; details: read-out: Mouse Fu,pl (fraction unbound in plasma)
Source text: Table 7 In vitro ADME and in vivo PK. | column: Mouse Fu,pl ^a

[6] = In vivo mouse PK after oral and intravenous administration; details: male mice, oral 10 mg/kg
Description: The oral exposure of the three compounds was evaluated in male mice by comparing exposures following oral (PO) and intravenous (IV) administration of 10 and 1 mg/kg doses of compounds, respectively (Table 7).

M. tuberculosis H37Rv [7] = test: MIC99 on solid medium, M. tuberculosis; format: cell-based, Mycobacterium tuberculosis; details: solid medium 7H10-OADC, 4 weeks, lowest concentration yielding less than 1% growth
[8] = system: Mycobacterium smegmatis mc^2155; test: MIC99 on solid medium, M. smegmatis; format: cell-based; details: Mycolicibacterium smegmatis, 3–4 days
Escherichia coli DH5α = test: MIC99 on solid medium, E. coli; format: cell-based; details: 24 h, LB agar, 1 day
[9] = system: Pseudomonas aeruginosa HER1018 (PAO1); test: MIC99 on solid medium, P. aeruginosa; format: cell-based; details: PAO1, 24 h, tryptic soy agar, 1 day
[10] = system: Bacillus subtilis Marburg; test: MIC99 on solid medium, B. subtilis; format: cell-based; details: nutrient agar, 28 °C, 3–4 days
M. tuberculosis = test: Kill kinetics against M. tuberculosis in liquid culture; format: cell-based, Mycobacterium tuberculosis; details: for Kill of non-replicating M. tuberculosis: non-replicating bacteria (starvation conditions, PBS-Ty), over 14–21 days; for Activity against replicating M. tuberculosis (kill kinetics): replicating bacteria in 7H9-Tw-OADC, over 21 days
[11] = system: Saccharomyces cerevisiae Y187; test: MIC99 on solid medium, S. cerevisiae; details: YPD agar, 3–4 days
[12] = Mycobacterium tuberculosis, H37RV, 672 h

Row | SMILES | MIC90 (M. tuberculosis H37Rv [1]) | Selectivity index (SI) = IC50/MIC90 (HepG2 cells) | IC50 (HepG2 cells) | % turnover by liver microsomes in 30 min, Mouse [2] | % turnover by liver microsomes in 30 min, Rat [3] | % turnover by liver microsomes in 30 min, Human [4] | fraction unbound [5] | Cmax [6] | PO Tmax [6] | PO t1/2 [6] | PO AUC [6] | MIC99 (M. tuberculosis H37Rv [7]; [12]) | MIC99 (M. tuberculosis H37Rv [7]) | MIC99 [8] | MIC99 (Escherichia coli DH5α) | MIC99 [9] | MIC99 [10] | Kill of non-replicating M. tuberculosis (M. tuberculosis) | Activity against replicating M. tuberculosis (kill kinetics) (M. tuberculosis) | MIC99 S. cerevisiae [11]
1 | Cc1ccc(CCNc2cc(-c3ccccc3)nc3ncnn23)cc1 [Compound 44, N-(4-Methylphenethyl)-5-phenyl-[1,2,4]triazolo[1,5-a]pyrimidin-7-amine] | 1.4 ± 0.5 µM (≈ 0.461 µg/mL) | 43 | 53 µM | 98.2% | 99.2% | 68.1% | 0.015 | 604 nM | 0.25 h | 1.05 h | – | – | – | – | – | – | – | – | – | –
2 | FC(F)(F)Oc1ccc(CCNc2cc(-c3ccccc3)nc3ncnn23)cc1 [Compound 48, 5-Phenyl-N-(4-(trifluoromethoxy)phenethyl)-[1,2,4]triazolo[1,5-a]pyrimidin-7-amine] | 3.9 ± 1.1 µM (≈ 1.56 µg/mL) | >27 | > 100 µM | 52.1% | 52.7% | 32.8% | 0.007 | 958 nM | 0.75 h | 2.49 h | 2.75 µM·h | 1.6 µM (≈ 0.639 µg/mL) | < 20 µM | > 10 µM | > 10 µM | > 100 µM | > 10 µM | 2–3 log | static activity | >10 µM
3 | COc1ccc(CC(=O)Nc2cc(-c3ccccc3)nc3ncnn23)cc1 [Compound 49, 2-(4-Methoxyphenyl)-N-(5-phenyl-[1,2,4]triazolo[1,5-a]pyrimidin-7-yl)acetamide] | 1.5 ± 0.7 µM (≈ 0.539 µg/mL) | >73 | > 100 µM | 12% and 12.5% | 22% and 21.8% | 31% and 30.6% | – | 62.8 nM | 1.5 h | – | 0.187 µM·h | 3.1 µM (≈ 1.11 µg/mL) | < 20 µM | > 10 µM | > 10 µM | > 10 µM | > 10 µM | 2–3 log | static activity | >10 µM
